Patent publication US10668024B2, “Mesoporous silica nanoparticles for biomedical applications” (The Regents of the University of California, priority 2007, dated 2020)

Assays:
[1] = system: MKN-45 cells; experiment: Cell death assay (WST-8), Example 2; format: cell-based, human
Excerpt: (§1) Human cancer cell lines, PANC-1, AsPC-1, Capan-1 (pancreatic), MKN45 (gastric), and SW480 (colon) were obtained from the American Type Culture Collection and were maintained in Dulbecco's modified Eagle's medium (DMEM) (GIBCO) or RPMI-1640 (Cellgro) supplemented with 10% fetal calf serum (Sigma), 2% L-glutamine, 1% penicillin, and 1% streptomycin stock solutions. The media were changed every 3 days, and the cells were passaged by trypsinization before confluence.

[2] = system: AsPc-1 cells; experiment: Cell death assay (WST-8), Example 2; format: cell-based, human
Excerpt: as §1

[3] = system: SW480 cells; experiment: Cell death assay (WST-8), Example 2; format: cell-based, human
Excerpt: as §1

[4] = system: PANC-1 cells; experiment: Cell death assay (WST-8), Example 2; format: cell-based, human
Excerpt: as §1

[5] = system: Capan-1 cells; experiment: Cell death assay (WST-8), Example 2; format: cell-based, human
Excerpt: as §1

[6] = system: PANC-1 cells; experiment: Fluorescence and confocal microscopy, Example 2; format: cell-based, human; details: suspension of CPT in PBS, 100 nM, 3 hours incubation
Excerpt: as §1
The fluorescence of the nanoparticles at 470 nm excitation wavelength was used to confirm the cellular uptake of FMSN. […] The cells were then monitored by fluorescence microscope with an excitation wavelength at 470 nm. To examine the location of FMSN within the cells, Acridine Orange (AO) (Sigma) and lysoSensor green DND-189 (Invitrogen) were used to monitor lysosomes and endosomes. Cells were cultured overnight on a Lab-Tek chamber slide system (Nalge Nunc International). After the cells were incubated with FMSN for 3 hours, they were washed with PBS and examined with confocal microscope (λex=470 nm) (Carl Zeiss LSM 310 Laser Scanning Confocal microscope). […] This property allows the use of fluorescence to study the distribution of CPT inside the cells. PANC-1 cells were incubated with CPT-loaded FMSN or CPT suspended in PBS (100 nM) for 3 hours, washed with PBS 3 times, and then examined by fluorescence microscope under UV.

[7] = system: PANC-1 cells; experiment: Apoptosis assay (propidium iodide/Hoechst 33342, DNA fragmentation, caspase-3 Western blot); format: cell-based, human; details: 24 hours
Experimental: Cell death was also examined using the propidium iodide and Hoechst 33342 double-staining method. The cells were stained with propidium iodide/Hoechst 33342 (1:1) for 5 minutes and then examined using fluorescence microscope. DNA fragmentation assay was also performed. PANC-1 cells were treated for 24 hours with: (1) 100 nM CPT in PBS, (2) 100 nM CPT loaded in FMSN (suspended in PBS), or (3) 64 μg/ml nonloaded FMSN in PBS, then washed twice with ice-cold PBS and collected by trypsinization. The cell pellets were resuspended in 500 μl of Tris-EDTA buffer (20 mM Tris-HCl [pH 8.0], 20 mM EDTA) containing 0.1% SDS and proteinase K (0.5 mg/ml) at 50° C. for 2 hours and then treated with RNase A (0.02 mg/ml) for 30 minutes at 37° C. DNA was extracted using phenol/chloroform and ethanol precipitation and was dissolved in distilled water, separated on a 2% agarose gel, and stained with ethidium bromide.
Proteins were separated by gel electrophoresis on a polyacrylamide gel containing sodium dodecyl sulfate (SDS), and then transferred to nitrocellulose membranes. The membranes were blocked with tris buffer saline (TBS) containing 5% (W/V) skim milk. […] Bands were detected with an ECL system (Amersham Pharmacia Biotech K.K., UK).

[8] = system: PANC-1 cells; experiment: Confocal microscopy of FMSN uptake, Example 3; format: cell-based, human; details: 0.1% sodium azide, sucrose 0.45 M, bafilomycin A 0.05 μM, nocodazole 2 μg/ml, brefeldin A 5 μg/ml
Experimental: The fluorescence of FITC was used to monitor cellular uptake of FMSN. Cells were incubated with FMSN for 3 h at 37° C. under a 5% CO2 95% air atmosphere in an 8-chamber Lab-Tek chamber slide system with covers (Nalge Nunc International), washed with phosphate buffered saline (PBS) and examined with confocal microscopy (λex=470 nm) (Carl Zeiss LSM 310 Laser Scanning Confocal microscopy). To examine the distribution of FMSN within the cells, the same cells were then incubated with 6 μM of Acridine Orange (AO) (Sigma), which specifically stains lysosomes/endosomes to red (Canonico, P. G. and Bird, J. W. C. (1969), J. Cell Biol. 43, 367-371), for 1 h in DMEM without phenol red, washed with PBS, and examined by confocal microscopy again (λex=488 nm). The emission light was passed through a 560-nm short-pass dichroic mirror. The green emission was passed through a 530-nm bandpass filter, and the red emission was passed through a 600-nm longpass filter. Both emissions were simultaneously collected using two photomultiplier tubes.
To determine whether the uptake of FMSN into cancer cells was energy-dependent, the cells were incubated with FMSN under different metabolic conditions. The uptake assay was performed in the presence of sodium azide, sucrose, bafilomycin A, nocodazole or brefeldin A. Cells were seeded on 8-chamber Lab-Tek chamber slides for 24 h, then preincubated at 4° C. with either 0.1% sodium azide, or sucrose (0.45 M), or bafilomycin A (0.05 μM), or nocodazole (2 μg/ml), or brefeldin A (5 μg/ml) for 10 min. The FMSN suspension in PBS was then added and the cells were incubated for additional 3 h at 37° C. The uptake was stopped by washing the cells three times with cold PBS, and then the cells were fixed with 4% paraformaldehyde in PBS for 1 h at room temperature and washed with PBS. The chambers of slides were removed, and each slide was mounted with fluorescence-free glycerol-based mounting medium (Fluoromount-G; Southern Biotechnology Associates, USA) by cover glasses. Cells were analyzed by confocal microscopy (Carl Zeiss LSM 310 Laser Scanning Confocal microscopy).

[9] = system: cancer cells; details: relative to CPT; cited from earlier work
[10] = system: PANC-1 cells; experiment: Cell morphology analysis by light microscopy; details: PANC-1, paclitaxel dissolved in DMSO

Compound: CC[C@@]1(O)C(=O)OCc2c1cc1n(c2=O)Cc2cc3ccccc3nc2-1 [CPT, camptothecin]
- cytotoxicity / growth inhibition ([1]; MKN-45, CPT dissolved in DMSO, 24 h treatment + 48 h): growth inhibition of different human cancer cells was observed
- cytotoxicity ([1]; MKN-45, CPT suspended in PBS, even at high concentrations): did not show any cytotoxicity
- cytotoxicity / growth inhibition ([2]; AsPc-1, CPT dissolved in DMSO, 24 h treatment + 48 h): growth inhibition of different human cancer cells was observed
- cytotoxicity ([2]; AsPc-1, CPT suspended in PBS, even at high concentrations): did not show any cytotoxicity
- cytotoxicity / growth inhibition ([3]; SW480, CPT dissolved in DMSO, 24 h treatment + 48 h): growth inhibition of different human cancer cells was observed
- cytotoxicity ([3]; SW480, CPT suspended in PBS, even at high concentrations): did not show any cytotoxicity
- cytotoxicity / growth inhibition ([4]; PANC-1, CPT dissolved in DMSO, 24 h treatment + 48 h): growth inhibition of different human cancer cells was observed
- cytotoxicity ([4]; PANC-1, CPT suspended in PBS, even at high concentrations): did not show any cytotoxicity
- cytotoxicity / growth inhibition ([5]; Capan-1, CPT dissolved in DMSO, 24 h treatment + 48 h): growth inhibition of different human cancer cells was observed
- cytotoxicity ([5]; Capan-1, CPT suspended in PBS, even at high concentrations): did not show any cytotoxicity
- CPT fluorescence in cells [6]: remained nonfluorescent
- mechanism of cell death (propidium iodide/Hoechst 33342 double staining) ([7]; PANC-1, CPT dissolved in DMSO, compared with CPT-loaded FMSN): similar

Compound: C[S+](C)[O-] [DMSO, dimethyl sulfoxide]
- mechanism of cell death (propidium iodide/Hoechst 33342 double staining) ([7]; PANC-1, 10% DMSO): induced necrosis

Compound: CO/C1=C\C(C)=C\[C@@H](C)[C@@H](O)[C@@H](C)C/C(C)=C/C=C/[C@H](OC)[C@@H]([C@@H](C)[C@@H](O)[C@H](C)[C@@]2(O)C[C@@H](O)[C@H](C)[C@@H](C(C)C)O2)OC1=O [bafilomycin A]
- effect of preincubation with inhibitor on uptake of FMSN [8]: completely suppressed the uptake

Compound: C[C@H]1CCC/C=C/[C@@H]2C[C@H](O)C[C@H]2[C@H](O)/C=C/C(=O)O1 [brefeldin A]
- effect of preincubation with inhibitor on uptake of FMSN [8]: did not show any effect

Compound: CCc1c2c(nc3ccc(OC(=O)N4CCC(N5CCCCC5)CC4)cc13)-c1cc3c(c(=O)n1C2)COC(=O)[C@]3(O)CC [irinotecan]
- cytotoxicity to cancer cells compared to CPT [9]: 10%

Compound: COC(=O)Nc1nc2ccc(C(=O)c3cccs3)cc2[nH]1 [nocodazole]
- effect of preincubation with inhibitor on uptake of FMSN [8]: significantly disrupted the uptake

Compound: CC(=O)O[C@H]1C(=O)[C@@]2(C)[C@H]([C@H](OC(=O)c3ccccc3)[C@]3(O)C[C@H](OC(=O)[C@H](O)[C@@H](NC(=O)c4ccccc4)c4ccccc4)C(C)=C1C3(C)C)[C@]1(OC(C)=O)CO[C@@H]1C[C@@H]2O [paclitaxel]
- morphologic change of the cells [10]: Cells became round and smaller

Compound: OC[C@H]1O[C@@](CO)(O[C@H]2O[C@H](CO)[C@@H](O)[C@H](O)[C@H]2O)[C@@H](O)[C@@H]1O [sucrose]
- effect of preincubation with inhibitor on uptake of FMSN [8]: suppressed the uptake
